# Laboratory results published in patent US20220017491A1, “COMPOUND INHIBITING YAP-TEAD BINDING, AND PHARMACEUTICAL COMPOSITION FOR PREVENTING OR TREATING CANCER, COMPRISING COMPOUND AS ACTIVE INGREDIENT” (KOREA RESEARCH INSTITUTE OF CHEMICAL TECHNOLOGY, priority 2018, published 2022).
# System: YAP-TEAD
# Experiment: Luciferase assay of YAP-TEAD binding inhibition (TEAD luciferase reporter 8XGTIIC in HEK293T cells)
# Format: cell-based
# Conditions: 10 μM, 24 hours, luciferase normalized with β-galactosidase
# Protocol: A Luciferase assay which allows an inhibition degree of YAP-TEAD, previously reported in Cancers 2018, 10(5), 140, was used to measure an in vitro binding inhibition rate of YAP-TEAD.
# HEK293T cells were purchased from American Type Culture Collection and incubated in DMEM media containing 10% FBS, L-glutamine, and penicillin/streptomycin. The HEK293T cells were seeded in a 24 well plate at a density of 1×10^5, and coated with polyethyleneamine (10 μg/mL). These cells were transfected with 8XGTIIC-luciferase (Addgene reference 34615) which is TEAD luciferase reporter plasmid and control β-galactosidase plasmid CMV-β-Gal using a lipofectamine 2000 reagent (Life Technologies, Inc.) according to the manufacturer's manual. Thereafter, the compound of the present invention was treated at a concentration of 10 μM for 24 hours, the cells were lysed using a Reporter lysis buffer (Promega, France), luciferase activity was read with a Mithras LB940 plate reader, and then normalization was performed with β-galactosidase.
row,SMILES,Inhibition(%)
1,O=C(Nc1ccc2c3c(cccc13)C(=O)N2Cc1ccccc1)C1CCCN1S(=O)(=O)c1cccs1 (stereo not shown) [Compound 3],63
2,O=C(Nc1ccc2c3c(cccc13)C(=O)N2CCc1c[nH]c2ccccc12)C1CCCCN1S(=O)(=O)c1cccs1 (stereo not shown) [Compound 13],50
3,COc1ccc(CCN2C(=O)c3cccc4c(NC(=O)C5CCC(NS(=O)(=O)c6cccs6)CC5)ccc2c34)cc1 (stereo not shown) [Compound 22],78
4,COc1ccc(CCN2C(=O)c3cccc4c(NC(=O)C5CCCN(S(=O)(=O)c6cccs6)C5)ccc2c34)cc1 (stereo not shown) [Compound 24],61
5,COc1ccc(CCN2C(=O)c3cccc4c(NC(=O)[C@H]5CC[C@H](NS(=O)(=O)c6cccs6)CC5)ccc2c34)cc1 [Compound 25],61
6,O=C(Nc1ccc2c3c(cccc13)C(=O)N2CCc1ccc(Cl)cc1Cl)C1CCCCN1S(=O)(=O)c1cccs1 (stereo not shown) [Compound 26],100
7,COCCCN1C(=O)c2cccc3c(NC(=O)C4CCCN(S(=O)(=O)c5cccs5)C4)ccc1c23 (stereo not shown) [Compound 28],81
8,COCCCN1C(=O)c2cccc3c(NC(=O)C4CCCN(S(=O)(=O)c5c(C)noc5C)C4)ccc1c23 (stereo not shown) [Compound 35],56
9,COCCCN1C(=O)c2cccc3c(NC(=O)C4CCCN(S(=O)(=O)c5c(C)n[nH]c5C)C4)ccc1c23 (stereo not shown) [Compound 36],54
10,COCCCN1C(=O)c2cccc3c(NC(=O)C4CCCN(S(=O)(=O)c5sc6ccc(Cl)cc6c5C)C4)ccc1c23 (stereo not shown) [Compound 48],58
11,COCCCN1C(=O)c2cccc3c(NC(=O)C4CCCN(S(=O)(=O)c5ccc6c(c5)OCCO6)C4)ccc1c23 (stereo not shown) [Compound 49],51
12,COCCCN1C(=O)c2cccc3c(NC(=O)C4CCCN(S(=O)(=O)c5c(C)c(C)c6c(c5C)CC(C)(C)O6)C4)ccc1c23 (stereo not shown) [Compound 50],63
13,COCCCN1C(=O)c2cccc3c(NC(=O)C4CCCN(S(=O)(=O)c5ccc6c7c(cccc57)C(=O)N6)C4)ccc1c23 (stereo not shown) [Compound 55],50
14,COCCCN1C(=O)c2cccc3c(NC(=O)C4CCCN(S(=O)(=O)c5cc(Cl)sc5Cl)C4)ccc1c23 (stereo not shown) [Compound 71],91
15,COCCCN1C(=O)c2cccc3c(NC(=O)C4CCCN(S(=O)(=O)c5csc6ccccc56)C4)ccc1c23 (stereo not shown) [Compound 76],87
16,CS(=O)(=O)N1CCC(CCN2C(=O)c3cccc4c(NC(=O)C5CCCCN5S(=O)(=O)c5cccs5)ccc2c34)CC1 (stereo not shown) [Compound 106],99.2
17,COCCCN1C(=O)c2cccc3c(NC(=O)C4CCCN(S(=O)(=O)c5ccc(-c6ccccn6)s5)C4)ccc1c23 (stereo not shown) [Compound 119],68
18,COCCCN1C(=O)c2cccc3c(NC(=O)C4CCCN(S(=O)(=O)c5ccc(OCCN(C)C)c(C)c5)C4)ccc1c23 (stereo not shown) [Compound 123],54
19,CS(=O)(=O)N1CCC(CCN2C(=O)c3cccc4c(NC(=O)C5CCCN(S(=O)(=O)c6cccs6)C5)ccc2c34)CC1 (stereo not shown) [Compound 131],78
20,CS(=O)(=O)N1CCC(CCN2C(=O)c3cccc4c(NC(=O)C5CCCCN5S(=O)(=O)c5ccc6c(c5)CCO6)ccc2c34)CC1 (stereo not shown) [Compound 133],59
21,CS(=O)(=O)N1CCC(CCN2C(=O)c3cccc4c(NC(=O)C5CCCCN5S(=O)(=O)c5ccc6c(c5)OCCO6)ccc2c34)CC1 (stereo not shown) [Compound 134],62
22,CS(=O)(=O)N1CCC(CCN2C(=O)c3cccc4c(NC(=O)C5CCCN(S(=O)(=O)c6ccco6)C5)ccc2c34)CC1 (stereo not shown) [Compound 136],80
23,COCCCN1C(=O)c2cccc3c(NC(=O)C4CCCN(S(=O)(=O)c5ccccc5)C4)ccc1c23 (stereo not shown) [Compound 137],87
24,COCCCN1C(=O)c2cccc3c(NC(=O)C4CCCCN4S(=O)(=O)c4ccccc4)ccc1c23 (stereo not shown) [Compound 138],79
25,CS(=O)(=O)N1CCC(CCN2C(=O)c3cccc4c(NC(=O)C5CCCCN5S(=O)(=O)c5ccco5)ccc2c34)CC1 (stereo not shown) [Compound 139],98
